# pIC50: −log10 of the molar value.
# Key:
# [1] = tested on: MHCC97-H cells; conditions: MHCC97-H s.c. nude mice; 16 mg/kg intraperitoneal, once every 24 h, 6 administrations; by tumor weight
# Protocol: (§1) Establishment of tumor-bearing models: Tumor cells were cultured in T75 flasks until achieving a logarithmical growth. The cells were trypsinized and DMEM medium containing 10% fetal bovine serum was added to terminate trypsinization. The cells were washed with PBS twice, and suspended. Cell concentration was adjusted to 5×10^7 cells/ml, and 150 μl cell suspension was injected into the right flank of the mice. After inoculation, the tumors in the nude mice were observed every day, and the mice were grouped when the tumors reached a volume of 100 mm^3. Each nude mouse was numbered, and the tumor size was measured. The data was entered into EXCEL for sorting and thus excluding extreme values. Random numbers were generated corresponding to the number of the mice, and the mice were randomly grouped using these random numbers.
# (§2) Administration: intraperitoneal injection was used at doses of 4 mg/kg, 8 mg/kg, and 16 mg/kg, respectively. The vehicle control group was injected with the same volume of DMSO. The mice received treatment once every 24 h, and a total of 6 times of administrations were given. During administration, changes of tumor size (length×width×width/2) were monitored and recorded in a real-time manner, and the results were expressed as mean±standard deviation.
# [2] = tested on: MHCC97-L cells; conditions: MHCC97-L s.c. nude mice; 16 mg/kg intraperitoneal, once every 24 h, 6 administrations; by tumor weight
# Protocol: as §1, §2
# [3] = tested on: lung cancer cell A549; assay: Lung orthotopic tumor formation model; format: in vivo, BALB/c nude mice; conditions: for Tumor inhibition rate / Weight of tumor: 6 administrations; for Average weight (X ± S), End: animal weight at end, in g (unit assumed)
# Protocol: The medium was changed once every 1-2 days. […] The subcultured tumor cells were digested into suspensions under a sterile condition, and orthotopically injected into BALB/c nude mice at the left chest between the third and fourth ribs (3.0×10^6 cells/mouse, 30 μl). The inoculation needle entered into the pulmonary lobe at a depth of about 5 mm. The inoculation day is labeled as DO. Seven days later, animals were weighed and randomized into groups based on body weight.
# Method: Animal models were randomized into three groups, vehicle control group (DMSO injected intraperitoneally), intraperitoneal low dose group (18 mg/kg), and intraperitoneal high dose group (36 mg/kg). The animals received treatment once every 24 hours. After 6 times of successive administration, animals were kept for another 30 days. At the end of this experiment, animals were sacrificed, and dissected to obtain lungs. Tumor was dissected and weighed.
# [4] = biological target: FGFR; assay: Kinase Glo Plus kinase activity assay; format: biochemical
# Protocol: (§3) 2) Activity of the rest 14 receptor tyrosine kinases was tested by using Kinase Glo Plus assay format, Progmag, and IC50 with regard to kinase activity was calculated based on the inhibition rate.
# [5] = biological target: PDGFR; assay: Kinase Glo Plus kinase activity assay; format: biochemical
# Protocol: as §3
# [6] = biological target: T1, TrkA (Homo sapiens, UniProt P04629); assay: Kinase Glo Plus kinase activity assay; format: biochemical
# T1 sequence (P04629 33-796, species assumed): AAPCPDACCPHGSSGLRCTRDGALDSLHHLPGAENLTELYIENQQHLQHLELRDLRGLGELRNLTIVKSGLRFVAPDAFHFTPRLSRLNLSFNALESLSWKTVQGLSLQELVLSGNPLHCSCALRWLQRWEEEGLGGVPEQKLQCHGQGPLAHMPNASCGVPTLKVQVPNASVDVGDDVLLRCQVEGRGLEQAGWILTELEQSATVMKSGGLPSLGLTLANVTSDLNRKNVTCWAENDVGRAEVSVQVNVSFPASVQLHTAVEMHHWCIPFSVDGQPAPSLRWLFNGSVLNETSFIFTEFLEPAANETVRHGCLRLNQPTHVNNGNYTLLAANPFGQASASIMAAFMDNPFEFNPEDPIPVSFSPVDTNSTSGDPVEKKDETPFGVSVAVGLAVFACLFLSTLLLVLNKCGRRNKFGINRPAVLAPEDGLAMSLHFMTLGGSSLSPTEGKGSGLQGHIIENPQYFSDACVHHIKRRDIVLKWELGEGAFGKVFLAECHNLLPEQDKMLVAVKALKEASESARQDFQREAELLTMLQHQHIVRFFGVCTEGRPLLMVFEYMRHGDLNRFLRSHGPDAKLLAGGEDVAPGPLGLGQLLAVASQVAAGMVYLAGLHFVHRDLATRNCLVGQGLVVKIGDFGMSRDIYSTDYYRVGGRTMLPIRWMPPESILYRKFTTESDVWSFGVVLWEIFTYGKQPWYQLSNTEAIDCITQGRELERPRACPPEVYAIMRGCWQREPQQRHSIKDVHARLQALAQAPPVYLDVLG
# Protocol: as §3
# [7] = biological target: TrkB (Homo sapiens, UniProt Q16620); assay: Kinase Glo Plus kinase activity assay; format: biochemical
# TrkB, sequence (Q16620 32-822, species assumed): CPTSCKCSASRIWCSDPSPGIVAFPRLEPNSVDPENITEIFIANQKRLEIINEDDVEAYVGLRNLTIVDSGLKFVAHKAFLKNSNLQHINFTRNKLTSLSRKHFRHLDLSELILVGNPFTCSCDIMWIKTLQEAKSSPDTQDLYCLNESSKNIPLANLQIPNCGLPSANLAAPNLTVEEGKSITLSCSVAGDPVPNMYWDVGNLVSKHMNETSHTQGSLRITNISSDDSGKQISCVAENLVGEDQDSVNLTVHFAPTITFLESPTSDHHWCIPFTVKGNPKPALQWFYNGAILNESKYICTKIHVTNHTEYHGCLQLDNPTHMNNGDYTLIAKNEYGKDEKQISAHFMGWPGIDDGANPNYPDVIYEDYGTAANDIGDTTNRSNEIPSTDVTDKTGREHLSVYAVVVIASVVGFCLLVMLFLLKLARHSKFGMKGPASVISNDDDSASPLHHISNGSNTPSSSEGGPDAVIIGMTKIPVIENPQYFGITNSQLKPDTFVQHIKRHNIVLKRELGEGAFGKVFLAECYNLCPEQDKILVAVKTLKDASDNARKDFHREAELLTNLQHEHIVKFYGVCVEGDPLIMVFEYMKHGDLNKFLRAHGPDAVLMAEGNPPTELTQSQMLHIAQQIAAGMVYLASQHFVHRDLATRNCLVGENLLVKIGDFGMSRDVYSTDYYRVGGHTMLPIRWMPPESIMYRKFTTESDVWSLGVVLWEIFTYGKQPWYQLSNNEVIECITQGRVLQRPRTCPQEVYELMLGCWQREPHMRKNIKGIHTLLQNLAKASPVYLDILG
# Protocol: as §3
# [8] = biological target: T1, TrkA; assay: Western blot, NGF-induced TrkA phosphorylation and signaling pathway in SK-N-SH cells; format: cell-based; conditions: 0.05-1.0 μM, 500 ng/mL NGF
# Protocol: The medium was changed once every 1-2 days. […] 500 ng/mL NGF or 200 ng/ml BDNF (if not added, marked as “-”) were added to stimulate the cells for 5 min. After cell lysis, total protein was extracted. Western blot assay was carried out with TrkA phosphorylated and non-phosphorylated (p-TrkA) antibodies, TrkB phosphorylated and non-phosphorylated (p-TrkB) antibodies, ERK phosphorylated and non-phosphorylated (p-ERK) antibodies, Akt phosphorylated and non-phosphorylated (p-Akt) antibodies, and GAPDH antibody.
# [9] = tested on: neuroblastoma SK-N-SH cells; assay: Subcutaneous SK-N-SH tumor-bearing nude mouse model; format: in vivo, nu/nu female mice; conditions: SK-N-SH s.c. nude mice, once every 24 h, 6 administrations
# Description: Model establishment: nu/nu female mice of 6-8 weeks old were fed under an SPF condition in an animal facility for one week, and then each of them was inoculated with 5×10^6 neuroblastoma SK-N-SH cells (purchased from ATCC) subcutaneously in left flank. Tumor volume was monitored every day after inoculation. Once the size reached ˜100 mm^3, mice were divided into groups.
# Each group included 10 animals.
# [10] = intraperitoneal high dose 36 mg/kg
# [11] = intraperitoneal low dose 18 mg/kg
compound,measurement,setting,value
"Cc1ccccc1NS(=O)(=O)c1ccc2c(c1)/C(=C/c1nc3ccccc3[nH]1)C(=O)N2 [Indo 5, 3-(1H-benzimidazol-2-methylene)-5-(2-methylphenylaminosulfo)-2-indolone]",Tumor inhibition rate,[1],61%
same,Tumor inhibition rate,[2],68%
same,Tumor inhibition rate,[3]; [10],40.7%
same,Weight of tumor,[3]; [10],0.224 ± 0.07 g
same,"Average weight (X ± S), End",[3]; [10],20.4 ± 0.3
same,Tumor inhibition rate,[3]; [11],23.8%
same,Weight of tumor,[3]; [11],0.288 ± 0.08 g
same,"Average weight (X ± S), End",[3]; [11],19.5 ± 0.7
same,pIC50,[4],< 5.00
same,pIC50,[5],< 5.00
same,pIC50,[6],7.66
same,pIC50,[7],6.64
same,Phosphorylation of TrkA and downstream ERK,[8],significantly inhibited
same,Tumor inhibition rate,[9]; 16 mg/kg gavage,48%
same,Tumor inhibition rate,[9]; 16 mg/kg intraperitoneal,50%
